Paper PMC10424187, “Structure-Guided Design and Synthesis of a Pyridazinone Series of Trypanosoma cruzi Proteasome Inhibitors” (Journal of Medicinal Chemistry, 2023)
Converted amounts (≈) assume the structure as drawn. “And” between values parts separate entries of the source, which are not always exact repeats. Identical values can stand only once.

Columns and labels:
T. cruzi [1] = assay: T. cruzi in vitro washout assay; type: cell-based, Trypanosoma cruzi; settings: for relapses, days post washout: 16-day treatment at 25-fold EC50, two replicates each
From the text: T. cruzi in vitro washout assay
This assay was run as previously reported:
Marco M.; Miles T.J.; Naylor C.; Osuna-Cabello M.; Paterson C.; Read K.D.; Pinto E.G.; Riley
J.; Scullion P.; Shishikura Y.; Simeons F.; Stojanovski L.; Svensen N.; Thomas J.; Wyatt P.G.;
disubstituted piperazines for the treatment of Chagas disease. […]

T. cruzi [2] = assay: Chronic mouse efficacy model of Chagas disease; type: in vivo, Balb/c mice
Method: All regulated procedures on living animals were carried out under the authority of a project license issued by the Home Office under the Animals (Scientific Procedures) Act 1986, as amended in 2012 (and in compliance with EU Directive EU/2010/63). Infected animals had access to food and water ad libitum and were housed under a 12-hour light/dark photoperiod.
Animals used in these experiments were female NMRI and Balb/c mice (Harlan, UK). […]
In vivo Mouse Efficacy Studies.
The T. cruzi chronic efficacy study was run in Balb/c mice as previously described:
M.D. Lewis, A. Fortes Francisco, M.C. Taylor, J.M. Kelly, A new experimental model for assessing drug efficacy against Trypanosoma cruzi infection based on highly sensitive in vivo imaging, J. Biomol. Screen 20 (1) (2015) 36–43

[3] = Mouse microsomal intrinsic clearance; type: in vitro ADME; settings: mouse liver microsomes, scaling 52.5 mg microsomal protein/g liver
Method: Mouse microsomal intrinsic clearance.
This assay was conducted as previously described:
J.; Reid, I. H.; Hill, A. P.;
(§1) were prepared by adding a volume (5 µL) of the 10 mM solution to a volume (195 µL) of […]

[4] = Kinetic aqueous solubility (UHPLC, PBS pH 7.4); type: physicochemical; settings: phosphate buffered saline, UHPLC UV/MS
Method: This assay was conducted as previously described: […]
as §1
format). Samples were then drawn through the filter using vacuum. The filtrate from the above […]
formic acid gradient elution. The UHPLC parameters are shown below:
Gradient program: Initial: 98% A, 2% B
Re-equilibration time: 0.6 min
Autosampler temperature: 25°C
Detector wavelength: 254 nm

ChromLogD = type: physicochemical; settings: pH 7.4; read-out: Chrom LogDpH7.4
Method: Chrom LogD was measured as previously described:
solubility and hydrophobicity. Drug Discov. Today 2010, 15, 648−655. […]

[5] = tested on: intracellular T. cruzi X10/7 A1 amastigotes
Human 20S proteasome = Human 20S proteasome (Homo sapiens, UniProt P28074+P49721); assay: human proteasome assay (chymotrypsin-like activity, Suc-LLVY-Rho-110-DPro); settings: for Emax: read-out: Hs Prot Max Response (%), individual replicate
Method: T. cruzi and human proteasome assays
(§2) The T. cruzi proteasome was partially purified as described in the above reference and Human
(§3) 20S proteasome was purchased from Boston Biochem (now R&D Systems, catalogue number
(§4) a Tecan Fluent to titrate over 11 points in Labcyte Echo-compatible Greiner Bio-One 384 well
(§5) polypropylene microplates. Subsequently, 100 nl of test compound titrations were transferred
(§6) to black Greiner Bio-One low volume 384 well microplates using a Labcyte Echo acoustic
(§7) 50 mM HEPES pH 7.5, 150 mM sodium chloride, 5% Glycerol, 1 mM dithiothreitol, 1 mM
(§8) CHAPS in deionised, filtered water (all chemicals purchased from Sigma Aldrich). Human 20S
(§9) These enzyme solutions were prepared immediately prior to assay initiation and stored at 4 °C
(§10) To monitor the Chymotrypsin-like activity of the T. cruzi and Human 20S proteasome proteins
(§11) a self-quenched, Rhodamine 110-labelled peptide with the sequence Suc-LLVY-Rho-110-
(§12) DPro was used (prepared by Cambridge Research Biochemicals. Suc is succinyl, while DPro
(§13) refers to ᴅ-proline). The peptide was initially prepared from solid as a 10 mM solution in 100%
(§14) DMSO and stored at -20 °C. Prior to use in the assay, an aliquot was thawed at room
(§15) to twofold Km. For use with the Human 20S proteasome, the Suc-LLVY-Rho-110-DPro
(§16) peptide was diluted in assay buffer to a concentration equivalent to twofold Km, which for this
(§17) enzyme was 2 μM. The peptide solutions were protected from light and stored at 4 °C before
(§18) A Multidrop Micro (Thermo Fisher), using a low volume dispense cassette, was used to add
(§19) the assay solutions to the test compounds in the low volume 384-well microplates. Prior to
(§20) addition of proteasome solution, 5 μl of assay buffer was added to one column (containing 100
(§21) nl, 100% DMSO) to act as no enzyme control to mimic full inhibition. Subsequently, 5 μl of
(§22) proteasome solution (either T. cruzi or Human 20S) was added to all wells on the test
(§23) microplate apart from the column containing 5 μl assay buffer. The microplate was then spun
(§24) using a suitable bench top centrifuge for 1 minute at 1000 rpm, before incubation at room
(§25) Following the initial incubation, 5 μl of substrate solution was then added to all wells on the
(§26) test microplate using a Multidrop Micro equipped with a discrete low volume dispense cassette.
(§27) The test microplates were then spun for 10 seconds at 1000 rpm before being rapidly moved to
(§28) a multi-mode microplate reader, capable of monitoring fluorescence intensity. The microplate
(§29) reader used for these studies was a Tecan M1000 Pro, equipped with quad monochromators.
(§30) 530 ± 5 nm. A series of fluorescence intensity measurements were taken every 30 seconds for
(§31) Subsequently, the fluorescence intensity measurements (relative fluorescence units, RFU) were
(§32) fit to a simple linear regression model (y = A + Bx, where y refers to the fluorescence intensity
(§33) and x refers to the time in seconds) to determine the initial rate of reaction. The initial rate for
(§34) every compound concentration tested was then fit a 4-parameter logistic model: y = (A + (B -
(§35) A)) / (1 + (x / C)D), where y refers to the assay response, x refers to the inhibitor concentration,
(§36) A and B are the range values (minimum and maximum, respectively), C is the IC50 value and
(§37) D is the slope. Potency values were then reported as pIC50, which is the negative log of the
(§38) IC50 (on a molar scale). Data analysis was automated and carried out using the ActivityBase

T. cruzi proteasome = T. cruzi proteasome (Trypanosoma cruzi, UniProt V5BU39+V5C017); assay: T. cruzi proteasome assay (chymotrypsin-like activity, Suc-LLVY-Rho-110-DPro); settings: for Tc Prot Hill Slope / Tc Prot Max Response (%): individual replicate; for Emax: read-out: Tc Prot Max Response (%), individual replicate
Method: T. cruzi and human proteasome assays
as §2, §3, §4, §5, §6, §7, §8, §9, §10, §11, §12, §13, §14, §15, §16, §17, §18, §19, §20, §21, §22, §23, §24, §25, §26, §27, §28, §29, §30, §31, §32, §33, §34, §35, §36, §37, §38

[6] = mean of at least three independent replicates
[7] = T. cruzi Prot pIC50, mean of at least three independent replicates
[8] = Tc Prot pIC50, individual replicate

T. cruzi proteasome, sequence (V5BU39 entry or part of it): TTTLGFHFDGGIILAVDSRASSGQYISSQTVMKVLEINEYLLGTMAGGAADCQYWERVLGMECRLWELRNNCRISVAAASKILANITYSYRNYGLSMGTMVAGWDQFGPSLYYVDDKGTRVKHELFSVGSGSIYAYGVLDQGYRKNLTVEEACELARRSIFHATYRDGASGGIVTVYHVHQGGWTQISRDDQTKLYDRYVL
T. cruzi proteasome, sequence (V5C017 entry or part of it): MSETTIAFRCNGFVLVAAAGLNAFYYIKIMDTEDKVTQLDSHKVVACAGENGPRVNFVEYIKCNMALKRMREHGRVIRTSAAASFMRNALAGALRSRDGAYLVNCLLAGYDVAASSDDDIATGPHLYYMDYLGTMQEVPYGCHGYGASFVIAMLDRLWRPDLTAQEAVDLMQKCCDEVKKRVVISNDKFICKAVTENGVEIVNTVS

SMILES | Mouse CLi [3] [mL/min/g] | solubility at 24 h [4] [µM] | chromatographic logD (ChromLogD) | EC50 [5] | Emax [5] | EC50 (host VERO cells) [nM] | Hs Prot Max Response (%) (Human 20S proteasome; individual replicate) | Hs Prot pIC50 (Human 20S proteasome; individual replicate) | Hs Prot pIC50 (Human 20S proteasome; [6]) | Emax (Human 20S proteasome) [%] | IC50 (T. cruzi proteasome; [7]) | IC50 (T. cruzi proteasome; [8]) | Tc Prot Hill Slope (T. cruzi proteasome) | Tc Prot Max Response (%) (T. cruzi proteasome) | Emax (T. cruzi proteasome) [%] | also measured
O=C(Cn1ccnc1[N+](=O)[O-])NCc1ccccc1 [BNZ, benznidazole, reference compound] |  |  |  |  |  |  |  |  |  |  |  |  |  |  |  | relapses, days post washout (T. cruzi [1]): 31 days and 35 days; parasites relapsing on day (T. cruzi [1]; 8 days of treatment, 50-fold EC50): 21 days; cure (T. cruzi [2]; 100 mg/kg for 20 days, u.i.d): cured all mice; effect on parasite levels (T. cruzi [2]; dosed at 100 mg/kg): reduced parasite levels below detectable limits
O=C(Nc1ccc(F)c(C(=O)NC2CC2)c1)c1ccc(=O)n(Cc2ccccc2)n1 [Compound 9, 1-Benzyl-N-(3-(cyclopropylcarbamoyl)-4-fluorophenyl)-6-oxo-1,6-dihydropyridazine-3-carboxamide] | 6.7 | 218 (≈ 88.6 µg/mL) | 4.2 | 2000 nM | 94% and 90% and 82% and 88% and 89% | > 50100 | 8.53% and 11% and 6% | < 4 | <4 | 7 | 158 nM | 251 nM and 200 nM and 100 nM | 1.0 and 0.9 | 83% and 82% | 71 | Emax (host VERO cells): 29%
O=C(NC1CC1)c1ccc(F)c(NC(=O)c2ccc(=O)n(Cc3ccccc3)n2)c1 [Compound 10, 1-Benzyl-N-(5-(cyclopropylcarbamoyl)-2-fluorophenyl)-6-oxo-1,6-dihydropyridazine-3-carboxamide] | 3.1 | 1.5 (≈ 0.61 µg/mL) | 4.1 | > 50100 nM |  | > 50100 | 17% and 3% and 2.27% | < 4 | <4 |  | 1580 nM | > 100000 nM | 1.2 | 35% and 20% and 57% |  | 
COc1ccc(Cn2nc(C(=O)Nc3ccc(F)c(C(=O)NC4CC4)c3)ccc2=O)cc1 [Compound 12, N-[3-(Cyclopropylcarbamoyl)-4-fluorophenyl]-1-[(4-methoxyphenyl)methyl]-6-oxo-pyridazine-3-carboxamide] | 2.4 | 83 (≈ 36.2 µg/mL) | 4.2 | 398 nM and 316 nM and 501 nM | 56% and 99% and 66% |  | 8% and 12% and 18% | < 4 | <4 |  | 31.6 nM | 39.8 nM and 25.1 nM | 0.95 and 0.9 | 80% and 85% | 67 | 
COc1ccc(Cn2nc(C(=O)Nc3ccc(F)c(C(=O)NC4CC4)c3)ccc2=O)cc1Cl [Compound 14, 1-[(3-Chloro-4-methoxy-phenyl)methyl]-N-[3-(cyclopropylcarbamoyl)-4-fluorophenyl]-6-oxo-pyridazine-3-carboxamide] | 1.6 | < 1 | 4.7 | 50.1 nM and 39.8 nM and 63.1 nM | 92% and 94% and 90% and 93% | > 50100 | 17% and 49% | < 4 | <4 |  | < 10 nM and 3.16 nM | 5.01 nM and 2 nM | 0.95 and 0.9 | 86% | 80 | 
COc1ccc(Cn2nc(C(=O)Nc3ccc(F)c(C(=O)NC4CC4)c3)ccc2=O)cc1C#N [Compound 16, 1-[(3-Cyano-4-methoxy-phenyl)methyl]-N-[3-(cyclopropylcarbamoyl)-4-fluorophenyl]-6-oxo-pyridazine-3-carboxamide] | 0.7 | < 1 | 4 | 158 nM and 200 nM and 126 nM and 100 nM | 91% and 90% and 102% and 87% and 92% |  | 5% | < 4 | <4 | 4 | 10 nM | 12.6 nM | 1.2 and 1.1 | 62% | 72 | 
O=C(Nc1ccc(F)c(C(=O)NC2CC2)c1)c1ccc(=O)n(Cc2ccc(Cl)c(F)c2)n1 [Compound 17, 1-[(4-Chloro-3-fluorophenyl)methyl]-N-[3-(cyclopropylcarbamoyl)-4-fluorophenyl]-6-oxo-pyridazine-3-carboxamide] | 4.8 | 21 (≈ 9.64 µg/mL) | 5.1 | 200 nM | 90% and 93% | > 50100 | 21% and 22% and 27% and 11% | < 4 | <4 |  | 25.1 nM | 39.8 nM and 20 nM | 0.9 and 1.0 | 87% and 86% | 80 | 
COc1ncc(Cn2nc(C(=O)Nc3ccc(F)c(C(=O)NC4CC4)c3)ccc2=O)cc1F [Compound 18, N-(3-(Cyclopropylcarbamoyl)-4-fluorophenyl)-1-((5-fluoro-6-methoxypyridin-3-yl)methyl)-6-oxo-1,6-dihydropyridazine-3-carboxamide] | 3.5 | < 1 | 5.6 | 50100 nM | 53% and 54% and 55% and 67% and 52% | > 50100 | 13% | < 4 | <4 | 10 | 2510 nM | 5010 nM and 1580 nM | 1.2 and 1.1 | 80% | 75 | 
COc1ccc(Cn2nc(C(=O)Nc3ccc(F)c(C(=O)NCCN4CCOCC4)c3)ccc2=O)cc1 [Compound 21, N-[4-Fluoro-3-(2-morpholinoethylcarbamoyl)phenyl]-1-[(4-methoxyphenyl)methyl]-6-oxo-pyridazine-3-carboxamide] | 3.6 | 200 (≈ 102 µg/mL) | 3.7 | 1580 nM and 1000 nM | 95% and 94% and 98% and 96% and 92% | > 50100 | 12% | < 4 | <4 | 9 | 126 nM | 126 nM | 1.0 and 0.9 | 72% | 80 | 
CNC(=O)c1cc(NC(=O)c2ccc(=O)n(Cc3ccc(OC)cc3)n2)ccc1F [Compound 26, N-(4-Fluoro-3-(methylcarbamoyl)phenyl)-1-(4-methoxybenzyl)-6-oxo-1,6-dihydropyridazine-3-carboxamide] |  |  |  | 794 nM and 631 nM and 501 nM and 1000 nM | 92% and 94% and 95% and 87% and 86% and 98% and 90% | > 50100 | 21% and 3% and 0% | < 4 | <4 |  |  | 63.1 nM and 31.6 nM | 1.0 and 1.1 | 82% | 73 | relapses, days post washout (T. cruzi [1]): 35 days and 42 days; cure (T. cruzi [2]; 50 mg/kg b.i.d for 20 days): not curative; Emax (host VERO cells): 20%
